Our source for the IC50 values is patent publication US10149876B2, “Tripterygium wilfordii extracts to overcome chemotherapy resistance” (WESTERN UNIVERSITY OF HEALTH SCIENCES, priority 2012, dated 2018).

Values joined by “and” are separate entries in the source; they are usually repeats but may differ in a detail not shown here. Identical values can stand only once. Like-named read-outs stand apart in the source and are kept apart here.

Assay [1] deals with K562 cells. Kind of assay: SRB cell viability assay, daunorubicin-sensitive K562 cells. Type of assay: cell-based, human. The following applies: Homo sapiens, K562, read-out: IC50 of drug when cells treated with drug only. As to the method: Cell culture of the above cell lines was performed as described in Example 2, except that 5,000, rather than 3,000 cells were plated per well for the K562, K562/Dox, BT474, SkBr3 lines.
Table 17 also contains the serially-diluted concentrations of drugs that each cell line was tested against.
Table 36 reports the cell viability data relating to pre-treatment with LTG-E prior to daunorubicin treatment. Table 37 reports control data obtained from cells that were not pre-treated with LGT-E prior to daunorubicin treatment. FIG. 15 summarizes the data of Tables 36 and 37 in a graphical format.

Assay [2] relates to K562/Dox cells. The assay is described as follows: SRB cell viability assay, daunorubicin-resistant K562/Dox cells. As to conditions: Homo sapiens. Type of assay: cell-based, human.

Usually IC50 stands for the concentration that gives 50% inhibition. Regarding `COc1cccc2c1C(=O)c1c(O)c3c(c(O)c1C2=O)C[C@@](O)(C(C)=O)C[C@@H]3O[C@H]1C[C@H](N)[C@H](O)[C@H](C)O1` [daunorubicin], the IC50 is 1.05 µM and 0.55 µg/mL in assay [1]; 6.53 µM and 3.45 µg/mL in assay [2] (K562, read-out: IC50 of drug when cells pre-treated with Chemosensitizing Agent before drug treatment); 32.6 µM and 17.2 µg/mL in assay [2] (K562, read-out: IC50 of drug when cells treated with drug only).
